Measurements taken from patent US12371454B2, “Cyclic peptide compound having Kras inhibitory action” (priority 2019, dated 2025).
Starred links: 1 amine or outer side, 2 acyl side, 3 side chain; linkers in the order of their positions; H or OH if unused. Positions of bridges follow the written chain, without caps; N, C: chain ends. Non-standard residues stand in square brackets, D forms with d. Residues, ends and D or L forms follow the SMILES beside them. *: point of attachment. NMeAbu(3,3-F2-piperidino) = CN[C@@H](CCN1CCCC(F)(F)C1)C(=O)O; hPhe(3-Cl-4-CF3) = N[C@@H](CCc1ccc(C(F)(F)F)c(Cl)c1)C(=O)O; hPhe(3-F,4-CF3) = N[C@@H](CCc1ccc(C(F)(F)F)c(F)c1)C(=O)O; 3Oxa8azabicyclo(3.2.1)octane = C1CC2COCC1N2*; NMeNle(6-CHF2) = CN[C@@H](CCCCC(F)F)C(=O)O; NMedβ3hAla = C[C@H](CC(=O)[*:2])N(C)[*:1]; NMeGly(cPent) = CN[C@H](C(=O)O)C1CCCC1; NMeAla(cPr) = CN[C@@H](CC1CC1)C(=O)O; NMeCha = CN[C@@H](CC1CCCCC1)C(=O)O; NMeChg = CN[C@H](C(=O)O)C1CCCCC1; NMeI = CC[C@H](C)[C@H](NC)C(=O)O; NMeD = CN[C@@H](CC(=O)O)C(=O)O; NMeL = CN[C@@H](CC(C)C)C(=O)O; NMeS = CN[C@@H](CO)C(=O)O; NMeA = CN[C@@H](C)C(=O)O; Piperidide = C1CCN(*)CC1; Ac5c = NC1(C(=O)O)CCCC1; Aze = O=C(O)[C@@H]1CCN1; Cyclobutyl = C1CC(*)C1; Sar = CNCC(=O)O; Propyl = CCC*

Experiments:
[1] = molecular target: T1, Kras and SOS1 (biotin-tagged human Kras loaded with GDP, His-tagged human SOS1) (Homo sapiens, UniProt P01116, G12D); experiment: Protein-protein interaction inhibition between Kras and SOS1 (KrasGl2D-SOS PPI) using AlphaScreen; type: binding; details: AlphaScreen; biotin-tagged human Kras loaded with GDP, His-tagged human SOS1; read-out: KRAS G12D-SOS PPI IC50
T1 construct: made in house; host or cells: E. coli (stated for Kras only)
How it was run: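 Donor beads (nickel) hold His-SOS1; acceptor beads (streptavidin) hold biotin-Kras bound to GDP. Signal measured at 520-620 nm following 680 nm excitation.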

[2] = system: Human pancreatic cancer cell line AsPC-1; experiment: Measurement of AsPC-1 cell growth inhibition (AsPC-1 CGI); type: cell-based; details: 96 h
How it was run: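 AsPC-1 cells in 15% FBS RPMI-1640 were exposed to test compound for 96 hours at 37° C, with CellTiter-Glo as endpoint.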

T1 sequence (P01116 1-188 isoform P01116-2 G12D): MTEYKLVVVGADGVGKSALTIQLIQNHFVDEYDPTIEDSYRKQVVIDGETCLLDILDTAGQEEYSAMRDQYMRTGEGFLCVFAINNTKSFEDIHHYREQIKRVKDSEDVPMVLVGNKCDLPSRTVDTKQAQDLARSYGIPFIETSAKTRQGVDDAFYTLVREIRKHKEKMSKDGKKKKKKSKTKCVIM

SMILES | IC50 [1] | IC50 [2]
CC[C@H](C)[C@@H]1NC(=O)[C@H](CC(C)C)N(C)C(=O)C[C@@H](C(=O)N2C3CCC2COC3)N(C)C(=O)[C@H](C2CCCCC2)N(C)C(=O)C2(CCCC2)NC(=O)[C@@H]2CCCN2C(=O)[C@H](CCc2ccc(C(F)(F)F)c(F)c2)NC(=O)CN(C)C(=O)[C@H](CC2CCCCC2)N(C)C(=O)CN(C)C(=O)CN(C)C1=O [Compound 1957] ([NMeL]I[Sar][Sar][NMeCha][Sar][hPhe(3-F,4-CF3)]P[Ac5c][NMeChg][NMeD]-{3Oxa8azabicyclo(3.2.1)octane}; lactam N-11) | 1.2 nM | 100 to 500 nM
CC[C@H](C)[C@@H]1NC(=O)[C@H](CC(C)C)N(C)C(=O)C[C@@H](C(=O)N2CCCCC2)N(C)C(=O)[C@H](C2CCCCC2)N(C)C(=O)C2(CCCC2)NC(=O)[C@@H]2CCCN2C(=O)[C@H](CCc2ccc(C(F)(F)F)c(Cl)c2)NC(=O)CN(C)C(=O)[C@H](CC2CCCCC2)N(C)C(=O)CN(C)C(=O)CNC1=O [Compound 1315] ([NMeL]IG[Sar][NMeCha][Sar][hPhe(3-Cl-4-CF3)]P[Ac5c][NMeChg][NMeD]-Piperidide; lactam N-11) | 1 nM | 100 to 500 nM
CC[C@H](C)[C@@H]1NC(=O)[C@H](CC(C)C)N(C)C(=O)C[C@@H](C(=O)N(C)C)N(C)C(=O)[C@H](C2CCCC2)N(C)C(=O)C2(CCCC2)NC(=O)[C@H](CCN2CCCC(F)(F)C2)N(C)C(=O)[C@H](CCc2ccc(C(F)(F)F)c(Cl)c2)NC(=O)CN(C)C(=O)[C@H](CC2CCCCC2)N(C)C(=O)[C@@H]2CCN2C(=O)[C@H](C)N(C)C1=O [Compound 910] ([NMeL]I[NMeA][Aze][NMeCha][Sar][hPhe(3-Cl-4-CF3)][NMeAbu(3,3-F2-piperidino)][Ac5c][NMeGly(cPent)][NMeD]-NMe2; lactam N-11) | 4.3 nM | 100 to 500 nM
CC[C@H](C)[C@@H]1NC(=O)[C@H](CC(C)C)N(C)C(=O)C[C@@H](C)N(C)C(=O)[C@H]([C@@H](C)CC)N(C)C(=O)C2(CCCC2)NC(=O)[C@@H]2CCCN2C(=O)[C@H](CCc2ccc(C(F)(F)F)c(Cl)c2)NC(=O)CN(C)C(=O)[C@H](CC2CCCCC2)N(C)C(=O)CN(C)C(=O)CN(C)C1=O [Compound 904] (cyclo([Ac5c][NMeI][NMedβ3hAla][NMeL]I[Sar][Sar][NMeCha][Sar][hPhe(3-Cl-4-CF3)]P)) | 7.3 nM | 50 to 100 nM
CC[C@H](C)[C@@H]1NC(=O)[C@H](CCCCC(F)F)N(C)C(=O)C[C@@H](C(=O)N2CCCCC2)N(C)C(=O)[C@H](C2CCCCC2)N(C)C(=O)C2(CCCC2)NC(=O)[C@@H]2CCCN2C(=O)[C@H](CCc2ccc(C(F)(F)F)c(Cl)c2)NC(=O)CN(C)C(=O)[C@H](CC2CCCCC2)N(C)C(=O)CN(C)C(=O)CN(C)C1=O [Compound 425] ([NMeNle(6-CHF2)]I[Sar][Sar][NMeCha][Sar][hPhe(3-Cl-4-CF3)]P[Ac5c][NMeChg][NMeD]-Piperidide; lactam N-11) | 0.57 nM | 50 to 100 nM
CCCOC[C@H]1C(=O)N(C)CC(=O)N[C@@H](CCc2ccc(C(F)(F)F)c(Cl)c2)C(=O)N2CCC[C@H]2C(=O)NC2(CCCC2)C(=O)N(C)[C@@H](C2CCCCC2)C(=O)N(C)[C@H](C(=O)N2C3CCC2COC3)CC(=O)N(C)[C@@H](CC(C)C)C(=O)N[C@@H]([C@@H](C)CC)C(=O)N(C)CC(=O)N(C)CC(=O)N1C [Compound 1900] ([NMeL]I[Sar][Sar][NMeS](Propyl)[Sar][hPhe(3-Cl-4-CF3)]P[Ac5c][NMeChg][NMeD]-{3Oxa8azabicyclo(3.2.1)octane}; lactam N-11) | 0.99 nM | 100 to 500 nM
CC[C@H](C)[C@@H]1NC(=O)[C@H](CC(C)C)N(C)C(=O)C[C@@H](C(=O)N2CCCCC2)N(C)C(=O)[C@H](CC2CC2)N(C)C(=O)C2(CCCC2)NC(=O)[C@@H]2CCCN2C(=O)[C@H](CCc2ccc(C(F)(F)F)c(Cl)c2)NC(=O)CN(C)C(=O)[C@H](CC2CCCCC2)N(C)C(=O)CN(C)C(=O)CN(C)C1=O [Compound 787] ([NMeL]I[Sar][Sar][NMeCha][Sar][hPhe(3-Cl-4-CF3)]P[Ac5c][NMeAla(cPr)][NMeD]-Piperidide; lactam N-11) | 2.9 nM | 100 to 500 nM
CC[C@H](C)[C@@H]1NC(=O)[C@H](CC(C)C)N(C)C(=O)C[C@@H](C(=O)N2CCCCC2)N(C)C(=O)[C@H](C2CCCCC2)N(C)C(=O)C2(CCCC2)NC(=O)[C@@H]2CCCN2C(=O)[C@H](CCc2ccc(C(F)(F)F)c(Cl)c2)NC(=O)CN(C)C(=O)[C@H](COC2CCC2)N(C)C(=O)CN(C)C(=O)CN(C)C1=O [Compound 309] ([NMeL]I[Sar][Sar][NMeS](Cyclobutyl)[Sar][hPhe(3-Cl-4-CF3)]P[Ac5c][NMeChg][NMeD]-Piperidide; lactam N-11) | 0.75 nM | 100 to 500 nM
